1 compound from patent US20090093538A1, “Method for treating cancer” (priority 2007, published 2009) can be followed below.

Experiment [1] concerns Hsp70. Description: Cell surface expression of Hsp70, MCF-7 cells (immunofluorescence). The format is cell-based, human. To be noted: MCF-7, 0.5 μM, 3 hrs. The method, then:
After treatment, cells were rinsed one time in PBS then fixed in 2% Paraformaldehyde at room temperature for 20 minutes. Slides with the fixed cells were rinsed with PBS two times. Primary antibody mouse monoclonal anti-Hsp70 (Stressgen SPA-8 10) was diluted 1:100 in PBS and the slides were incubated 1 hour at 37° C. The slides were rinsed two times with PBS. Secondary antibody anti-mouse AlexaFluor 488 (Molecular Probes A-11001) was diluted 1:500 in PBS and the slides were incubated 30 min at 37° C. The slides were rinsed two times in PBS. DAPI (Molecular Probes D-3571) were diluted 1:10,000 in PBS and the slides were incubated at room temperature in dark for 5 min. The slides were rinsed two times in PBS, then once in deionized water and left to dry in dark until almost completely dry. Coverslips were mounted with Prolong Anti-fade Mounting Media (Molecular Probes P-748 1). The images were captured with a monochrome CCD camera SenSys (see FIGS. 27A-D and 28A-D) or by confocal microscopy (see FIG. 29A-E). In FIGS. 27A-D and 28A-D, the bright pink color on the surface of the MCF-7 cells (FIG. 27A-D) or CEM cells (FIG. 28A-D) indicates Hsp70 on the surface of the cells. In FIG. 29A-E the bright green color on the surface of the cell indicates Hsp70 on the surface of the HT29 cells.

The test system of experiment [2] is Hsp70. As to the kind of experiment: Hsp70 secretion by cultured tumor cells (ELISA). To be noted: MDA-MB-435, 0.04 μM or 0.2 μM, 72 h. The format is cell-based, human. Here is the method:
MDA-MB-435 tumor cells were seeded at 15,000 cells/150 μl/well of 48-well plate and cultured in DMEM supplemented with 10% fetal bovine serum. The compounds were dissolved in dimethyl sulfoxide (DMSO) then a solution was prepared containing 0.04 μM or a 0.2 μM in 25% DMSO and 75% culture medium. […] The medium was then separated from the cells and Hsp70 was measured by ELISA kit from Stressgen. Cell viability was checked by CCK-8 cell count assay (Dojindo) at 88 hr.

Experiment [3] has as its system Hsp70. Description: Hsp70 RNA induction, quantitative PCR, Hs294T cells. The format is cell-based, human. The conditions noted are these: 100 nM. Here is the method:
[…] 500 ng of RNA from each sample was used for cDNA synthesis using iScript cDNA Synthesis Kit (Biorad, Cat# 170-8891). 1 uL of cDNA mixture was used with the iQ SYBR Green Supermix (Biorad, Cat# 170-8882) to perform quantitative PCR in an iCycler machine (Biorad) using standard protocols. QPCR for each sample/time point was performed in duplicate. The following primers for inducible human Hsp70 and gapdh were used:
Ct values were obtained from the iCycler program and used in an equation (2^−ΔΔCT) for determining the amount of target relative to gapdh expression. This compares the relative expression of Hsp70 to the corresponding levels of gapdh in each sample. Duplicate wells were averaged and graphed with their corresponding standard deviation.
Activation of HSF-1 by oxidative stress has been reported in the literature to require p38 kinase signaling in some cell lines.

The next experiment concerns p38 kinase. As to the kind of experiment: p38 phosphorylation, Western blot, MDA-MB-435 cells. The conditions noted are these: 10, 50, 100, 500 or 1000 nM, 4 hours. The format is cell-based, human. The method, then:
(§1) After treatment the cells were lysized and used for Western blot analysis.
Samples were run on a SDS-PAGE gel and proteins were transferred onto a nitrocellulose membrane by a semi-dry transfer. Nitrocellulose was blocked with 5% skim milk in TBS with 0.5% Tween at room temperature for 1 hour and then probed with anti-phospho-p38 (Cell Signaling, #9216) antibody. The nitrocellulose was then probed with secondary antibodies, HRP-conjugated goat anti-rabbit IgG and HRP-conjugated horse anti-mouse IgG (#7074, #7076, Cell Signaling). LumiGLO reagent, 20× Peroxide (#7003, Cell Signaling) was used to visualize gel (see FIG. 35).
A general note: A western blot detects proteins with antibodies after separation by electrophoresis.

For another experiment, the system named is MAPKAPK-2. As to the kind of experiment: MAPKAPK-2 phosphorylation, Western blot, CEM and CV-1 cells. To be noted: CEM and CV-1 tumor cells, 0.1 or 0.5 μM. The format is cell-based. The method, then:
as §1
Samples were run on a SDS-PAGE gel and proteins were transferred onto a nitrocellulose membrane by a semi-dry transfer. Nitrocellulose was blocked with 5% skim milk in TBS with 0.5% Tween at room temperature for 1 hour and then probed with anti-p-MAPKAPK-2 (Thr334) (#3041, Cell Signaling) antibody. Tubulin was used as a normalization control and was probed with Anti-Tubulin (T9026, Sigma) antibody.

A further experiment concerns Ramos cells. Description: ROS generation, carboxy-H2DCFDA probe, flow cytometry. The format is cell-based. The method, then:
In these experiments, we monitored the production of ROS using the cell permeable Carboxy-H2DCFDA probe. When this probe is oxidized by ROS, it emits a green fluorescence that can be detected using flow cytometry or fluorescent microscopy. […] 25 μM carboxy-H2DCFDA (Invitrogen. C400) working solution was added to cover the cells, and the cells were incubate for 30 minutes at 37° C., protected from light. The cells were gently washed three times in warm HBSS/Ca/Mg. ROS levels, as determined by fluorescence intensity, were determined by flow cytometry (excitation at 495 nm, emission at 529 nm).
Tiron is a direct scavenger of ROS and is a potent inhibitor of oxidative stress.
Ramos cells were treated with elesclomol (500 nM) for the indicated times then washed gently once with warm HBSS/Ca/Mg (Invitrogen Carlsbad, Calif. Cat# 14025). 25 μM carboxy-H2DCFDA (Invitrogen Cat #C400) working solution was added to cover the cells and they were incubated for 30 minutes at 37° C., protected from light. The cells were gently washed three times in warm HBSS/Ca/Mg. ROS levels (fluorescence intensity) were determined by flow cytometry (excitation at 495 nm, emission at 529 nm) using a Becton Dickinson FACSCalibur equipped with CellQuest Pro software. Data is plotted as percent of elesclomol-treated cells with DCFDA fluorescence relative to DMSO (control) treated cells (see FIG. 49).

As for `CN(NC(=O)CC(=O)NN(C)C(=S)c1ccccc1)C(=S)c1ccccc1` [Compound 1], the “Hsp70 on the surface of cells” value in the experiment on Hsp70 [1] was “bright pink fluorescent color on the surface of the cells indicating Hsp70”; with Hsp70 [1] (then 2 hrs recovery without Compound 1), “stronger than immediately following treatment with Compound 1”. Besides, the “secretion of Hsp70” value in the experiment on Hsp70 [2] was “increased the secretion of Hsp70 by the cells in a dose dependent manner”. Further, the “Hsp70 RNA expression induction” value turned out to be 3.9 fold in the experiment on Hsp70 [3] (3 hours) and 8.3 fold with Hsp70 [3] (6 hours). Besides, the “phosphorylation and activation of p38 kinase” value in the experiment on p38 kinase is “induces the phosphorylation and activation of p38 kinase in a dose dependent manner”. The “phosphorylation of MAPKAPK-2” value in the experiment with MAPKAPK-2 is “induces the phosphorylation of MAPKAPK-2”. Further, the “generation of ROS” value with Ramos cells (0.5 μM, 24 hours) was “induced the generation of ROS”. In addition, in the experiment with Ramos cells (Ramos cells, time course), the “earliest time at which induction of ROS was observed” value worked out at 3 h.
